Consider 1 compound from patent publication US9809562B2, “NAT10 modulators for treating or preventing laminopathies, aging and cancer” (CAMBRIDGE ENTERPRISE LIMITED, priority 2014, dated 2017).

Structures can show the parent of a compound that is named as a salt.

Test [1] relates to HGPS mice (Lmna^G609G/G609G). The test can be described thus: Survival in mouse model of Hutchinson Gilford progeria syndrome. It counts as in vivo. Conditions: daily oral dose of 100 mg/kg/day from 3 weeks of age, vs vector only, n=10. Here is the method:
Middle panel of FIG. 25: HGPS mice were treated with a daily oral dose of 100 mg/kg/day of Compound 2 from 3 weeks of age and until culled due to >20% body weight loss. […] Right panel of FIG. 25: Global survival of HGPS mice (Lmna^G609G/G609G) treated with vector only (Lmna^G609G/G609G V) or with Compound 2 (Lmna^G609G/G609G2) showing a significant increase of the median survival of mice upon Compound 2 treatment (+25%). Number of mice/group n=10.

For test [2], the target named is T1, NAT10 purified from HEK293 cells (Homo sapiens, UniProt Q9H0A0).
T1 construct: made in house; host or cells: HEK293 (transient transfection, anti-FLAG immunopurification, elution with triple-Flag peptide)
T1 sequence (Q9H0A0 1-1025): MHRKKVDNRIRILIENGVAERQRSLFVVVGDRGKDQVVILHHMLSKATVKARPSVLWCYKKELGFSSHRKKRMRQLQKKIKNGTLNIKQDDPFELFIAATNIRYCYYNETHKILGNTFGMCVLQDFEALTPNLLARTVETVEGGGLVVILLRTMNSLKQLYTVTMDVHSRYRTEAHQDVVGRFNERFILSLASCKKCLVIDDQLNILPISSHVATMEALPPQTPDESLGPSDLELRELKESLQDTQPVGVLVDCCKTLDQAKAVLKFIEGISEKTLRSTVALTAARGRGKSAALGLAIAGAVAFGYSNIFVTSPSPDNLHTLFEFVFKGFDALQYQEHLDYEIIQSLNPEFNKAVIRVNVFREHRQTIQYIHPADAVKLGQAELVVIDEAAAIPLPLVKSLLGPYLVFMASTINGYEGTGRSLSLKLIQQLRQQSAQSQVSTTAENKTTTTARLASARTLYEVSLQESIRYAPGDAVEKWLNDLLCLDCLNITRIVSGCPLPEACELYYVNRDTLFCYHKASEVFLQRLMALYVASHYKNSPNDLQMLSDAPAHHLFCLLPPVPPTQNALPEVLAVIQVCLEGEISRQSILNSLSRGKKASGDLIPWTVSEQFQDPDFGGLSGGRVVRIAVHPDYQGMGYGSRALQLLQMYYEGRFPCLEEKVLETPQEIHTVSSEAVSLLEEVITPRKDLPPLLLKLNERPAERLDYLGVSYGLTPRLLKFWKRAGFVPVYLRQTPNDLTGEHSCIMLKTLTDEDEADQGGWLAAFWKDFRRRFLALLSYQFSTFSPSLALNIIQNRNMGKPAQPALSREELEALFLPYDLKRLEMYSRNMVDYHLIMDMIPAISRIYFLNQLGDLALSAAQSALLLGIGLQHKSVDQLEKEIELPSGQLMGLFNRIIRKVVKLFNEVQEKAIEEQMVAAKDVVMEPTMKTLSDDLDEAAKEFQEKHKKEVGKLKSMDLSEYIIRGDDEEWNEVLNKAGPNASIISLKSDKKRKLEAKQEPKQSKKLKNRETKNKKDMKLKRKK
As to the kind of experiment: Circular dichroism spectroscopy of purified NAT10. Conditions: titration, 10 μM FLAG-NAT10, concentration-dependent. Type of test: binding. Here is the method:
HEK293 cells were transiently transfected with NAT10 constructs and harvested after 48 hours in PBS. Cells were lysed for 5 minutes at room temperature in IP lysis buffer (20 mM Tris pH 7.5, 40 mM NaCl, 2 mM MgCl2, 0.5% NP-40) freshly supplemented with 50 U/ml benzonase and EDTA-free protease inhibitor cocktail (Roche). After this initial lysis step, NaCl concentration was adjusted to 450 mM and samples were incubated at 4° C. with rotation. Lysates were clarified by centrifugation (13,200 rpm, 20 minutes at 4° C.), and after recovery NaCl concentration was equilibrated to 150 mM. Lysates were used for immunoprecipitation reaction in IP buffer (25 mM Tris pH 7.5, 150 mM NaCl, 1.5 mM DTT, 10% glycerol, 0.5% NP-40) supplemented with protease inhibitors. Target proteins were captured with anti-FLAG antibody (M2, Sigma-Aldrich) coupled to protein A/G-Dynabeads (Life Sciences). Complexes were washed with IP buffer containing incrementally increasing amounts of NaCl (250 mM, 500 mM, and 1M). Following this, the immuno-complexes were washed in TBS containing gradually decreasing amounts on NaCl (1M, 500 mM, 250 mM, and 150 mM). […]
CD experiments were performed using a Chirascan Circular Dichroism Spectrophotometer (Applied Photophysics, UK). […] CD scans were recorded at 25° C. over the wavelength range of 180 to 350 nm with a 1 second response time, 1 nm pitch and 1.5-nm bandwidth. […]

On to `Clc1ccc(-c2csc(NN=C3CCCC3)n2)cc1` [Compound 2, 4-(4-Chlorophenyl)-2-(2-cyclopentylidenehydrazinyl)thiazole Hydrochloride Salt], for which the “increase of the median survival” value in test [1] is recorded as “+25%”. In test [2], the “NAT10 conformation, absolute molar ellipticity at 210 nm” value was “clear increase in the absolute molar ellipticity”.
